Entries after “also recorded” stand apart in the source; their conditions may differ. Counter-ions that a name gives are not always drawn. Values belong to the molecule of their own block, whether it stands above or below them.
Columns and labels:
[1] = Water solubility test (Comparative Example 1); assay type: physicochemical
Experimental: The ABT-199 monohydrochloride Form A prepared in the present invention was compared with the known ABT-199 hydrochloride Form II prepared according to the Preparation Example 2 in a water solubility test. In specific, 10 mg sample was placed in a 50 mL glass bottle, and added with 10 mL deionized water dropwisely at 25° C. to form a suspension. The suspension was treated with ultrasonics until the suspension was stirred for 24 hours and the sample was almost dissolved, the resultant solution was filtered and subject to HPLC detection, and the sample solubility in water was calculated.

[2] = Crystalline stability at 130° C. for 1 day by XRPD (Comparative Example 2); assay type: physicochemical; details: for crystalline form after being stored at 130° C. for 1 day: XRPD
Experimental: The ABT-199 monohydrochloride Form B prepared by the present invention was compared with the known ABT-199 hydrochloride Form II prepared according to the Preparation Example 2. In specific, 30 mg samples were placed at 130° C. for 1 day, and XRPD was carried out to investigate the crystalline stability.

[3] = Slurry competition experiment for crystalline form stability (Comparative Example 3); assay type: physicochemical; details: for crystalline form in slurry competition experiment: water-saturated ethyl acetate, 3 days, room temperature or 40° C.
Experimental: The ABT-199 monohydrochloride Form C prepared by the invention and the known ABT-199 hydrochloride Form II prepared by Preparation Example 2 were used for the competition experiment to test the crystalline form stability. In specific, 20 mg ABT-199 Form II and 20 mg ABT-199 monohydrochloride Form C samples were added to the same water-saturated ethyl acetate to form slurries, which were stirred for 3 days at room temperature or at 40° C., then the samples were analyzed by XRPD to investigate their crystalline form stability.

[4] = Water solubility test (Comparative Example 4); assay type: physicochemical; details: 25° C.
Experimental: The ABT-199 dihydrochloride Form 1 prepared by the invention and the known ABT-199 hydrochloride Form II prepared according to the Preparation Example 2 were tested for water solubility. In specific, 10 mg sample was placed in a 20 mL glass bottle, and added with 10 mL deionized water at 25° C. to form a suspension, which was stirred for 24 hours at 25° C., filtered, and detected by HPLC, and the solubility of the sample in water was calculated.

[5] = cited from earlier work
[6] = Storage stability at room temperature and 10%-90% RH for 4 months; assay type: physicochemical; details: room temperature
[7] = slurry of Form II and Form C in water-saturated ethyl acetate, XRPD

Structure (SMILES): CC1(C)CCC(CN2CCN(c3ccc(C(=O)NS(=O)(=O)c4ccc(NCC5CCOCC5)c([N+](=O)[O-])c4)c(Oc4cnc5[nH]ccc5c4)c3)CC2)=C(c2ccc(Cl)cc2)C1.Cl [ABT-199 hydrochloride Form II, reference compound]
solubility ([1]; deionized water, 25° C., 24 hours, HPLC): About 20 μg/mL
solubility in water (in words) ([1]; water): low solubility in water
crystalline form after being stored at 130° C. for 1 day ([2]; 130° C., 1 day, listed as ABT-199 monohydrochloride Form II): changes; also recorded: Phase transition occurred
stability at high temperature (in words) ([2]; high temperature): poor stability at high temperature
crystalline form after stirring at 40° C. for 3 days [3, 7]: Convered to Form C
crystalline form in slurry competition experiment [3]: changed to Form C
crystalline form in slurry competition experiment ([3]; listed as ABT-199 monohydrochloride Form II): converted to Form C
solubility ([4]; deionized water, stirred 24 hours, HPLC): About 20 μg/mL

Structure (SMILES): CC1(C)CCC(CN2CCN(c3ccc(C(=O)NS(=O)(=O)c4ccc(NCC5CCOCC5)c([N+](=O)[O-])c4)c(Oc4cnc5[nH]ccc5c4)c3)CC2)=C(c2ccc(Cl)cc2)C1 [ABT-199 hydrochloride Form I]
stability when exposed to air [5]: easily converted to ABT-199 hydrochloride Form II

Structure (SMILES): CC1(C)CCC(CN2CCN(c3ccc(C(=O)NS(=O)(=O)c4ccc(NCC5CCOCC5)c([N+](=O)[O-])c4)c(Oc4cnc5[nH]ccc5c4)c3)CC2)=C(c2ccc(Cl)cc2)C1 [ABT-199 dihydrochloride Form 1]
solubility at 24 h ([4]; thermodynamic from solid, deionized water, stirred 24 hours, HPLC): ~50 µg/mL
solubility in water compared with known ABT-199 hydrochloride Form II [4]: higher solubility
solubility in water compared with known ABT-199 hydrochloride Form II ([4]; listed as Form 1): higher
appearance, XRPD pattern and melting point after storage ([6]; listed as Form 1): remains unchanged

More lines, now with the values ahead:

solubility at 24 h ([1]; thermodynamic from solid, deionized water, 25° C., 24 hours, HPLC): ~40 µg/mL
solubility in water compared with known ABT-199 hydrochloride Form II ([1]; water, 25° C.): higher solubility
appearance, XRPD pattern and melting point after storage ([6]; listed as Form A): unchanged
Structure (SMILES): CC1(C)CCC(CN2CCN(c3ccc(C(=O)NS(=O)(=O)c4ccc(NCC5CCOCC5)c([N+](=O)[O-])c4)c(Oc4cnc5[nH]ccc5c4)c3)CC2)=C(c2ccc(Cl)cc2)C1 [ABT-199 monohydrochloride Form A]

crystalline form after stirring at 40° C. for 3 days [3, 7]: Form C
crystalline form after stirring at room temperature for 3 days ([3]; slurry of Form II and Form C in water-saturated ethyl acetate, room temperature, XRPD): Form C
crystalline form in slurry competition experiment [3]: remains unchanged
appearance, XRPD pattern and melting point after storage ([6]; listed as Form C): remains unchanged
Structure (SMILES): CC1(C)CCC(CN2CCN(c3ccc(C(=O)NS(=O)(=O)c4ccc(NCC5CCOCC5)c([N+](=O)[O-])c4)c(Oc4cnc5[nH]ccc5c4)c3)CC2)=C(c2ccc(Cl)cc2)C1 [ABT-199 monohydrochloride Form C]

high-temperature stability compared with known ABT-199 hydrochloride Form II ([2]; 130° C., 1 day): better high-temperature-stability
crystalline form after being stored at 130° C. for 1 day ([2]; 130° C., 1 day): Form B
crystalline form after being stored at 130° C. for 1 day ([2]; 130° C., 1 day, listed as Form B): does not change
appearance, XRPD pattern and melting point after storage ([6]; listed as Form B): remains unchanged
Structure (SMILES): CC1(C)CCC(CN2CCN(c3ccc(C(=O)NS(=O)(=O)c4ccc(NCC5CCOCC5)c([N+](=O)[O-])c4)c(Oc4cnc5[nH]ccc5c4)c3)CC2)=C(c2ccc(Cl)cc2)C1 [ABT-199 monohydrochloride Form B]

Source: patent US10759798B2, “ABT-199 addition salt and crystal form thereof, preparation method thereof, and pharmaceutical composition thereof” (Hangzhou SoliPharma Co., Ltd, priority 2016, dated 2020)
